Source: ChEMBL document CHEMBL1201862, “PubChem BioAssay data set” (2004)
Calls of active or inactive are those of the source.

Experiments:
[1] = NIH-3T3 fibroblast cytotoxicity, dose response, cytotoxicity control, cell-based, fluorescence, Alamar Blue, secondary assay (AID 2327); assay type: functional;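 further: NIH-3T3 mouse fibroblasts cultured with fluconazole at 8 µg/mL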
[2] = fluconazole-exposed Candida albicans growth modulators – fluorescence, retest, confirmation (AID 2467); assay type: functional, cell-based
[3] = target: T1, Serine/threonine-protein phosphatase (Candida dubliniensis (strain CD36 / CBS 7987 / NCPF 3949 / NRRLY-17841) (Yeast), UniProt B9W6M3); assay: blockers of CaCl2-induced CDRE-lacZ signaling – S. cerevisiae, luminescence, secondary, dose response (AID 2388); assay type: functional, cell-based;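 further: yeast reporter cells carrying a calcineurin-responsive lacZ construct stimulated with calcium chloride; luminescent beta-galactosidase reporter signal in whole cells rather than isolated phosphatase activity; potency for inhibition where a drop in reporter signal means calcineurin blockade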
T1 sequence (B9W6M3 whole entry): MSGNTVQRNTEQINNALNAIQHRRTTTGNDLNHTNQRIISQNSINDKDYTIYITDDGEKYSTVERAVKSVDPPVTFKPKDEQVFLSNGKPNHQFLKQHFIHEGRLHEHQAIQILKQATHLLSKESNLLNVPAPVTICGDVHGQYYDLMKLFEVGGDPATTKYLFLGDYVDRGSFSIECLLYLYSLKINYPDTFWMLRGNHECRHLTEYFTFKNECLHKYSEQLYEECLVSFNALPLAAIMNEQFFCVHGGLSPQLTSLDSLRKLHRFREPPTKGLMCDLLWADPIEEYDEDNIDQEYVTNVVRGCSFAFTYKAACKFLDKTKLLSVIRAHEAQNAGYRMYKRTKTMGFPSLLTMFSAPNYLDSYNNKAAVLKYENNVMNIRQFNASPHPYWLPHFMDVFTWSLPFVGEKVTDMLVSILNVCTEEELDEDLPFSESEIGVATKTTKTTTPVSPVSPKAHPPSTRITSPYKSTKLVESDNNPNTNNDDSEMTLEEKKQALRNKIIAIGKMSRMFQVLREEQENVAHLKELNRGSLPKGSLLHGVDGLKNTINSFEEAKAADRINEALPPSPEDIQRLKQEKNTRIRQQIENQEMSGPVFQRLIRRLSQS

[4] = target: T2, Calpain-2 catalytic subunit (Sus scrofa, UniProt P43367); assay: m-calpain protease blockers, concentration series – biochemical, fluorogenic peptide substrate, dose response (AID 1420); assay type: functional
T2 sequence (P43367 whole entry): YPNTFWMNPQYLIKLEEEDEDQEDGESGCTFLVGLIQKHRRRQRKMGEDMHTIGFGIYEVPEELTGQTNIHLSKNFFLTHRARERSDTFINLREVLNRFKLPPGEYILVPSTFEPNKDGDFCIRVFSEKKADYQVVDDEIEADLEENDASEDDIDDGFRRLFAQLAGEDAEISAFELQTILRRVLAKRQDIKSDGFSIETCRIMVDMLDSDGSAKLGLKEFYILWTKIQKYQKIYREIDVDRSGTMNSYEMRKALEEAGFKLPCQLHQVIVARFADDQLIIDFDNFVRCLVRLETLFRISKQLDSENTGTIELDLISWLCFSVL

[5] = target: ATP-dependent molecular chaperone HSP82 (Candida albicans (strain WO-1) (Yeast), UniProt C4YTQ8); assay: steroid-induced GRE reporter decrease in yeast – S. cerevisiae, luminescence, Hsp90 inhibitor project, dose response (AID 2400); assay type: functional, cell-based;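 further: beta-galactosidase luminescence from glucocorticoid response element reporter as proxy for Hsp90 function; inhibitor potency where signal loss means Hsp90 inhibition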
Chain of ATP-dependent molecular chaperone HSP82 (C4YTQ8 whole entry): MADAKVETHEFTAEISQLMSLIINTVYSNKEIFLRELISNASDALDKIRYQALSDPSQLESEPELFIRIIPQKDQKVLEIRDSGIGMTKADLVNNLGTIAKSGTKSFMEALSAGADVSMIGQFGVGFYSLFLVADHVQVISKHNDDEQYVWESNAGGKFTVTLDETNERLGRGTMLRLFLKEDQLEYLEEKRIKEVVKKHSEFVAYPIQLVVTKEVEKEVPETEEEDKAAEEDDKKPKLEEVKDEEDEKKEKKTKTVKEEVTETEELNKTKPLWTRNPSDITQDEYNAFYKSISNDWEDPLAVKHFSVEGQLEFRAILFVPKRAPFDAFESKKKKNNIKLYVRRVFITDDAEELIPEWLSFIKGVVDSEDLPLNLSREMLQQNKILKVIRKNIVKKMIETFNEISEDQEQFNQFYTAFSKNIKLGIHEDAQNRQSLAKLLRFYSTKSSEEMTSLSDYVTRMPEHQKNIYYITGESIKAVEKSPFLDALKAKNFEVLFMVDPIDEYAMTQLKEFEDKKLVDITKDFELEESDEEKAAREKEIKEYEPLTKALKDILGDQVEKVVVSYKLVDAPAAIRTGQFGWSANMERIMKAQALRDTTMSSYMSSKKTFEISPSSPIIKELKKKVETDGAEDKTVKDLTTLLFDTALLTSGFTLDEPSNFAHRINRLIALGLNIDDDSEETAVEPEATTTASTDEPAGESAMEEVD

[6] = decrease of insulin promoter-GFP reporter – imaging, high-content screening, mouse beta cells (AID 1628); assay type: functional; conditions: MIN6
[7] = MIN6 cell viability loss – mouse insulinoma, cytotoxicity control, dose response (AID 2122); assay type: functional;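 further: confirmatory high-throughput counterscreen run to flag cytotoxic compounds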
[8] = microbe, parasite or virus in culture; assay type: functional; conditions: Mycobacterium tuberculosis
[9] = target: T3, Ubiquitin-conjugating enzyme E2 N (Homo sapiens, UniProt P61088); assay type: functional;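 further: Dose-response confirmation in a TR-FRET assay detecting UBC13-driven polyubiquitin chain formation, inhibition measured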
T3 sequence (P61088 whole entry): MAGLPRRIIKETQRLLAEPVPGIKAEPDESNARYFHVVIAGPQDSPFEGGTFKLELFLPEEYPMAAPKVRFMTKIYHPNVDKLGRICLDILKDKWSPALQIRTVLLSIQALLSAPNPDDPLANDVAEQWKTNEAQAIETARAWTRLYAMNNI

HEK293 = assay: EBV LMP1 TES2 canonical NF-kB signalling blockers – cell-based, HEK293, luciferase, cherry-pick, dose response (AID 588343); assay type: functional; conditions: Homo sapiens
[10] = target: T4, Short transient receptor potential channel 4 (Mus musculus, UniProt Q9QUQ5); assay: calcium entry via TRPC4 opening agents – cell-based, HEK293 TRPC4/mu-opioid, Fluo-4 calcium, dose response (AID 434937); assay type: functional
T4 sequence (Q9QUQ5 whole entry): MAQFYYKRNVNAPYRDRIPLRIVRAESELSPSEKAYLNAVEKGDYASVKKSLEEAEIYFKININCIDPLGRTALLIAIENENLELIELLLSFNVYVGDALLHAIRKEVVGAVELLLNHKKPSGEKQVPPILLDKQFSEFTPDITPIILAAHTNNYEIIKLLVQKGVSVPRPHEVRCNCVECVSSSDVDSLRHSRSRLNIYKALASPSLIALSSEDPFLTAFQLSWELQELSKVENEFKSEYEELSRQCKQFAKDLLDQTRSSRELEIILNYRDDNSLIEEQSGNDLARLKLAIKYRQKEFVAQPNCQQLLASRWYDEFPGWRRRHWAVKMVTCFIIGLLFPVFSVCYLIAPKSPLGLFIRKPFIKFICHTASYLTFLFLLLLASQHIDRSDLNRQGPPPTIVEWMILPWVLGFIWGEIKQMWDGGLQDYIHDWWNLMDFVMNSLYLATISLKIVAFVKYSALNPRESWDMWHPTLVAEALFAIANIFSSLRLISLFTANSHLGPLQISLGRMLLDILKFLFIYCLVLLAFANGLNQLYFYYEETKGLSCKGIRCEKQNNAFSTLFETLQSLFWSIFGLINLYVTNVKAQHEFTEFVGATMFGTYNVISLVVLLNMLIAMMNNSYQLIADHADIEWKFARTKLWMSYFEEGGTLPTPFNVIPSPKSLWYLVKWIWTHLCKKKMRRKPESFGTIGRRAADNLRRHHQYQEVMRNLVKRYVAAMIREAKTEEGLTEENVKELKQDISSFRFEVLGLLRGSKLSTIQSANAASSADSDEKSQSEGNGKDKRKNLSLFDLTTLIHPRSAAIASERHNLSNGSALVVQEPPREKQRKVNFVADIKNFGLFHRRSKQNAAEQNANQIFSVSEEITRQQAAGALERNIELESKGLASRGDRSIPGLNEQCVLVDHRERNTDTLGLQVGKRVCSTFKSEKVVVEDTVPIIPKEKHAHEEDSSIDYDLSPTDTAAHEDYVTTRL

[11] = target: Glucose-6-phosphate 1-dehydrogenase (Homo sapiens, UniProt P11413); assay: inhibition of Homo sapiens G6PD, dose series – biochemical, fluorescence, selectivity assay for P. falciparum G6PD inhibitor project, dose response (AID 504792); assay type: functional
Chain of Glucose-6-phosphate 1-dehydrogenase (P11413 whole entry): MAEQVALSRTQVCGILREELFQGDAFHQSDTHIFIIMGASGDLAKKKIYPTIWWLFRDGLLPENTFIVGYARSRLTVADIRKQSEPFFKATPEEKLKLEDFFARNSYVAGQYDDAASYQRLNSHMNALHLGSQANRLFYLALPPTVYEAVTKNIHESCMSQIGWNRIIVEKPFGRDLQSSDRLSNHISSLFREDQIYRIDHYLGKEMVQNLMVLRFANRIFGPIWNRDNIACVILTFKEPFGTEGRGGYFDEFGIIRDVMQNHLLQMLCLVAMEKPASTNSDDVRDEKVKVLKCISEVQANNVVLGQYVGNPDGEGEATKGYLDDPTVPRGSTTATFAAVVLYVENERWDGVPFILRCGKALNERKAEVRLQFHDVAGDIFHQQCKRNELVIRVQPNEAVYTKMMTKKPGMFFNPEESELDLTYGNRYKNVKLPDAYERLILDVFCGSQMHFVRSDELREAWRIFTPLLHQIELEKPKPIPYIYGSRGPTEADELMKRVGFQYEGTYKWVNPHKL

CHO-K1 = assay: (§1) Counterscreen for antagonists of the orexin 1 receptor (OX1R; HCRTR1): Homogeneous time resolved fluorescence (HTRF)-based cell-based dose response assay to identify antagonists of the parental CHO-K1 cell line. [Related pubchem assays (depositor defined):AID434989, AID435008, AID463079, AID485270, AID492963, AID492964, AID492965, AID493232, AID504699, AID504701]; assay type: functional; conditions: Cricetulus griseus
[12] = as §1, with “Fluorescence-based” for “Homogeneous time resolved fluorescence (HTRF)-based”, “cell-based high throughput” for “cell-based”, “CHO” for “CHO-K1”; assay type: functional
[13] = target: T5, Orexin/Hypocretin receptor type 1 (Homo sapiens, UniProt O43613); assay: Homogeneous Time Resolved Fluorescence (HTRF)-based cell-based high throughput dose response assay for antagonists of the orexin 1 receptor (OX1R; HCRTR1). [Related pubchem assays (depositor defined):AID434989, AID435008, AID463079, AID485270, AID492963, AID492964, AID492965, AID493232, AID504717, AID504718]; assay type: functional
T5 sequence (O43613 whole entry): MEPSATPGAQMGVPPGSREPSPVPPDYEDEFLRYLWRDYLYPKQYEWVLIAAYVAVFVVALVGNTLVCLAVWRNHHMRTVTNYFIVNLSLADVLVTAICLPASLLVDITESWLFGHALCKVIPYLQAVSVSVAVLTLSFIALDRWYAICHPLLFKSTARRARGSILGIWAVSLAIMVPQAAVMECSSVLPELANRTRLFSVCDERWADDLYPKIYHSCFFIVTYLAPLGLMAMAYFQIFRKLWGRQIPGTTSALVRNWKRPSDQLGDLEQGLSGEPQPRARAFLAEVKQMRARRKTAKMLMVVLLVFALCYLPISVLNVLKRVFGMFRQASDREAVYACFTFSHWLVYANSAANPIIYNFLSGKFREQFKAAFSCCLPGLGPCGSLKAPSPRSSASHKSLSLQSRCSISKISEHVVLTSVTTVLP

[14] = target: T5, Orexin/Hypocretin receptor type 1; assay: Fluorescence-based cell-based high throughput dose response assay for antagonists of the orexin 1 receptor (OX1R; HCRTR1). [Related pubchem assays (depositor defined):AID434989, AID435008, AID463079, AID485270, AID492963, AID492964, AID492965, AID493232, AID504717, AID504718]; assay type: functional
Orexin receptor type 2 [15] = target: T6, Orexin receptor type 2 (Homo sapiens, UniProt O43614); assay: Counterscreen assay for antagonists of the orexin 1 receptor (OX1R; HCRTR1): Fluorescence-based cell-based dose response assay for antagonists of the orexin 2 receptor (OX2R; HCRTR2), run by assay provider.; assay type: functional
T6 sequence (O43614 whole entry): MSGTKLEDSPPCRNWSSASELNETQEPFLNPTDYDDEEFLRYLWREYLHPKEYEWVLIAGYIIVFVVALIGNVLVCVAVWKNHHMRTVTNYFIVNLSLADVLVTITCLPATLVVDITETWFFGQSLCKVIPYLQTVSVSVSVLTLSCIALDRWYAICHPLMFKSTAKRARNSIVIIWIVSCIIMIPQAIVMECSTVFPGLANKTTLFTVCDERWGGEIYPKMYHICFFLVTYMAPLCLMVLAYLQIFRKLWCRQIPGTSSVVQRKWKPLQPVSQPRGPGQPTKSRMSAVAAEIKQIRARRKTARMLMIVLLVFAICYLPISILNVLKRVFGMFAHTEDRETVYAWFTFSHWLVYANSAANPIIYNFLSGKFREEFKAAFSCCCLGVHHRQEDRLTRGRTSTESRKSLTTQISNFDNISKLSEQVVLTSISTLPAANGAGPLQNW

Orexin receptor type 2 [16] = target: T6, Orexin receptor type 2; assay: Counterscreen assay for antagonists of the orexin 1 receptor (OX1R; HCRTR1): Homogeneous Time Resolved Fluorescence (HTRF)-based cell-based dose response assay for antagonists of the orexin 2 receptor (OX2R; HCRTR2), run by assay provider.; assay type: functional
Escherichia coli = assay: microbe, parasite or virus in culture
[17] = Trypanosoma cruzi growth suppression in host cells – NIH3T3 host cells, beta-gal luminescence, confirmation (AID 2044); assay type: functional, cell-based;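 further: intracellular parasites grown in NIH/3T3 mouse fibroblasts as host cells; luminescent beta-galactosidase reporter signal from transgenic T. cruzi replicating inside host cells; inhibitors lower the luminescence signal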
[18] = NIH3T3 cell viability loss – ATP luminescence, mouse fibroblasts, counter-screen, dose response (AID 2010); assay type: functional, cell-based;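 further: cells exposed to compound for about 90 hours before reading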
[19] = target: T4, Short transient receptor potential channel 4; assay: block of DAMGO-driven TRPC4 calcium entry – cell-based, HEK293 TRPC4/mu-opioid, Fluo-4 calcium, dose response (AID 434942); assay type: functional;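 further: potency of inhibitors blocking the TRPC4 calcium response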
[20] = luciferase reporter signal suppression in cells – H4 neuroglioma cells, luminescence, dose response (AID 1990); assay type: functional, cell-based
[21] = Luminescence Cell-Based Dose Response HTS to Identify Inhibitors of 5'UTR Stem-Loop Driven Prion Protein mRNA Translation in H4 Neuroglioblastoma Cells. [Related pubchem assays: 1827 (Project Summary), 1813 (Primary HTS)]; assay type: functional
[22] = alpha-synuclein stem-loop luciferase translation blockers – H4 neuroglioma cells, luminescence, confirmation (AID 1988); assay type: functional, cell-based

## Cc1ccc(NC(=O)c2noc(C(C)C)c2[N+](=O)[O-])cc1
[1]
  EC50: > 150 µM (inconclusive)
[2]
  EC50: 3.18 µM (active)
[3]
  EC50: > 180 µM (inactive)
[4]
  IC50: > 50 µM (not active)
[5]
  EC50: > 160 µM (inactive)

## COC(=O)c1c(N=C(S)NN2CCN(C)CC2)sc2c1CCC(C)C2 (configuration not stated)
[6]
  IC50: 4.04 µM (active)
[7]
  IC50: 3.07 µM (active)
[8]
  CC50: 11.6 µM (active)
[9]
  IC50: > 20 µM (inactive)

## Cn1ncc(Cl)c1C(=O)NC1CCCC1
HEK293
  AC50: > 350 µM (inactive)

## CCCN1CCN(C(=O)Cn2c(=O)oc3cc(S(=O)(=O)NCc4ccccc4)ccc32)CC1
[10]
  EC50: 4.22 µM (active)

## COc1cc(NCCCn2cnc(C(=O)Nc3ccc(C)c(C)c3)n2)cc(OC)c1OC
[11]
  IC50: > 80 µM (inactive)

## CCOC(=O)CSc1nnc(NC(=O)c2cccc([N+](=O)[O-])c2)s1
[11]
  IC50: 43.8 µM (inactive)

## COCCCNC(=O)CCC(=O)NNc1nc2ccccc2c2nc(-c3ccccc3)nn12
CHO-K1
  IC50: > 66.2 µM (inactive)
[12]
  IC50: > 49.7 µM (inactive)
[13]
  IC50: 3.55 µM (active)
[14]
  IC50: 11.7 µM (inactive)
Orexin receptor type 2 [15]
  IC50: > 88.8 µM (inactive)
Orexin receptor type 2 [16]
  IC50: > 50 µM (inactive)

## Cc1ccc(-c2c(C(=O)N/N=C/c3cccs3)nnn2-c2nonc2N)cc1
[11]
  IC50: > 80 µM (inactive)

## COc1ccc(Nc2nc(NCCO)nc(OC)n2)cc1
Escherichia coli
  AC50: 25.5 µM (active)

## COc1cccc(CNC(=O)CN2CCC(c3nc4cc(C)ccc4[nH]3)CC2)c1
[6]
  IC50: 2 µM (active)
[7]
  IC50: 15 µM (inactive)
[17]
  EC50: 0.217 µM (active)
[18]
  EC50: > 60 µM (not active)

## CN(C)C(CNC(=O)c1ccc2c(c1)S(=O)(=O)c1ccccc1C2=O)c1ccco1 (configuration not stated)
[19]
  EC50: 4.73 µM (active)
[10]
  EC50: 0.668 µM (active)

## Oc1c2c(nc3c(-c4cccc(Br)c4)cnn13)CCCC2
[20]
  EC50: 11.2 µM (active)
[21]
  EC50: 8.39 µM (active)
[22]
  EC50: 9.2 µM (active)
HEK293
  AC50: 4.49 µM (active)

## COc1ccccc1NC(=O)[C@@H]1CCCN1S(=O)(=O)c1ccc(Cl)cc1
CHO-K1
  IC50: > 66.2 µM (inactive)
[12]
  IC50: > 49.7 µM (inactive)
[13]
  IC50: 1.21 µM (active)
[14]
  IC50: 13.2 µM (inactive)
Orexin receptor type 2 [15]
  IC50: 11 µM (inactive)
Orexin receptor type 2 [16]
  IC50: 6.28 µM (active)
